Source: US20080318945A1, “Novel Compounds” (priority 2005, published 2008)

Key:
TRPV4 channel receptor = molecular target: T1, TRPV4 channel receptor (Homo sapiens, UniProt Q9HBA0); experiment: FLIPR assay using TRPV4 expressing HEK cells; assay type: cell-based; details: FLIPR method; read-out: pEC50 values (converted)
T1 construct: expressed in transfected cells; host or cells: HEK cells
Excerpt: Other techniques used to measure TRPV4 channel receptor activation in chondrocytes include, but are not limited to: FLIPR assay, measuring a compound's capability to reduce the amount of ADAMTSs produced and/or released in response to a catabolic stimulus by a cell comprising a TRPV4 channel receptor; measuring a compound's capability to reduce the amount of MMPs produced and/or released in response to a catabolic stimulus by a cell comprising a TRPV4 channel receptor; measuring a compound's capability to effect the amount of nitric oxide (NO) produced in response to a catabolic stimulus by a cell comprising a TRPV4 channel receptor; and measuring a compound's capability to attenuate the inhibition of matrix synthesis in response to a catabolic stimulus by a cell comprising a TRPV4 channel receptor.
(§1) All exemplary compounds of the present invention were assessed using at least one of the biological assays presented above. Compounds presented in the Examples had EC50 values of about 0.0001 μM to 1 μM as measured by Flex Station using bovine articular chondrocytes and pEC50 values between about 6.0 to 9.1 as measured by FLIPR assay using TRPV4 expressing HEK cells.

TRPV4 channel receptors = molecular target: T2, TRPV4 channel receptors (Bos taurus, UniProt A0A8F4X677); experiment: Ca2+ influx by Fura-2 fluorescence on FlexStation in bovine articular chondrocytes; assay type: cell-based
T2 construct: obtained using this method in bovine articular chondrocytes; endogenous in cells; host or cells: bovine articular chondrocytes
Excerpt: Ca^2+ influx mediated through TRPV4 channel receptors can be measured using articular chondrocytes from such species as, but not limited to, human, rat, canine, rabbit, monkey, and bovine, using standard techniques in the art such as, but not limited to, Fura-2 (Invitrogen/Molecular Probes, Eugene, Oreg.) fluorescence using a FlexStation (manufactured by Molecular Devices, Sunnyvale, Calif.). Table 1 lists biological data for several representative compounds obtained using this method in bovine articular chondrocytes.
as §1

T1 sequence (Q9HBA0 whole entry): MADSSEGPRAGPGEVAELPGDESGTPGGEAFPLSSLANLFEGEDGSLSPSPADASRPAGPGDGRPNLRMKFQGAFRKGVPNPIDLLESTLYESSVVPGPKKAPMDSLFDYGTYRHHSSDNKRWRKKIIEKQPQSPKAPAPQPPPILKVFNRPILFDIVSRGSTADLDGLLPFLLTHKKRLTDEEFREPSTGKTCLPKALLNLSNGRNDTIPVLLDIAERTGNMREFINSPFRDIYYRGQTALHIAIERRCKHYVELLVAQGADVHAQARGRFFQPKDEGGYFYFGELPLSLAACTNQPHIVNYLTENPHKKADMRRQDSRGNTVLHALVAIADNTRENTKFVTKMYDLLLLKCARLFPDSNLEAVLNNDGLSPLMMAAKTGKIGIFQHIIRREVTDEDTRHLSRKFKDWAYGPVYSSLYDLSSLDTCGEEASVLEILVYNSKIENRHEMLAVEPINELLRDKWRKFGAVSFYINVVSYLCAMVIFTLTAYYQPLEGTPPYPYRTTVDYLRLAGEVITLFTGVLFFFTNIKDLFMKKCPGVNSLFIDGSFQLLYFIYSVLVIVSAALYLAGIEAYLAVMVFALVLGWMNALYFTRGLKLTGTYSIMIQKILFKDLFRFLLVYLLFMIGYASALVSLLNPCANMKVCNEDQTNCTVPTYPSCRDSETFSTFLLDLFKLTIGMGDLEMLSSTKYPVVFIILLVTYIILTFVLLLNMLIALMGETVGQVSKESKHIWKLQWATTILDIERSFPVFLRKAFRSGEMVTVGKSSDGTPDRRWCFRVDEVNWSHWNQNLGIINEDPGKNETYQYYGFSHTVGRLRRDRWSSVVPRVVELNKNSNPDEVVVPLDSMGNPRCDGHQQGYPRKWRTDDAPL
T2 sequence (A0A8F4X677 1-871): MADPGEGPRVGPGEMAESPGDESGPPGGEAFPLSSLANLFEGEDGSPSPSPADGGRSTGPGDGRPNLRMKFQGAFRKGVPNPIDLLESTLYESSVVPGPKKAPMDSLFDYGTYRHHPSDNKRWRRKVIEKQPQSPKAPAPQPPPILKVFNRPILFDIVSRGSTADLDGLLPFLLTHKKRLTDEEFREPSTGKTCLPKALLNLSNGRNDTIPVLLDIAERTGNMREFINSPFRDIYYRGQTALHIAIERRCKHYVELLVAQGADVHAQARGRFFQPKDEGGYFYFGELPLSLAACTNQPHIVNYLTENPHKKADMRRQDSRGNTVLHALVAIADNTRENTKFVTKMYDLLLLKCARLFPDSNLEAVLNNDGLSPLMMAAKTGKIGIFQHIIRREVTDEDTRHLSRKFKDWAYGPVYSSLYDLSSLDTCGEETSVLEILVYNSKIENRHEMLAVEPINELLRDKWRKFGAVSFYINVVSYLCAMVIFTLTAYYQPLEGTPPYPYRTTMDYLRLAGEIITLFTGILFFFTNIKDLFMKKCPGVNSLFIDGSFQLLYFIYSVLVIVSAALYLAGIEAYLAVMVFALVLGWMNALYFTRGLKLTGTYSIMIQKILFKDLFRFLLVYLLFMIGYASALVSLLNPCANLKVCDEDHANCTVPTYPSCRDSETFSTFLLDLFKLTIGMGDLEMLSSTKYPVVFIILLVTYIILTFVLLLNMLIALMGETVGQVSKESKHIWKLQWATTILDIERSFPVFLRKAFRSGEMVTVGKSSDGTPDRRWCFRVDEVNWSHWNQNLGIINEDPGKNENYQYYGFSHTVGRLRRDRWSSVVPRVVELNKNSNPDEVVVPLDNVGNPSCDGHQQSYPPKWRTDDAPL

SMILES | EC50 (TRPV4 channel receptor) [nM] | EC50 (TRPV4 channel receptors) [nM]
CC(C)C[C@H](NC(=O)c1cc2ccccc2s1)C(=O)N1CCN(C(=O)CNS(=O)(=O)c2ccc(Cl)cc2Cl)CC1 [Example 3, N-((1S)-1-{[4-({[(2,4-Dichlorophenyl)sulfonyl]amino}acetyl)-1-piperazinyl]carbonyl}-3-methylbutyl)-1-benzothiophene-2-carboxamide] | 10 to 79.4 | 20 to 89
CC(C)C[C@H](NC(=O)c1cc2ccccc2s1)C(=O)N1CCN(C(=O)[C@H](C)NS(=O)(=O)c2ccc(Cl)cc2Cl)CC1 [Example 9, N-((1S)-1-{[4-((2S)-2-{[(2,4-dichlorophenyl)sulfonyl]amino}propanoyl)-1-piperazinyl]carbonyl}-3-methylbutyl)-1-benzothiophene-2-carboxamide] | < 7.94 | 0.1 to 19
CC(C)C[C@H](NC(=O)c1cc2ccccc2s1)C(=O)N1CCN(CCNS(=O)(=O)c2ccc(Cl)cc2Cl)CC1 [Example 1, N-((1S)-1-{[4-(2-{[(2,4-Dichlorophenyl)sulfonyl]amino}ethyl)-1-piperazinyl]carbonyl}-3-methylbutyl)-1-benzothiophene-2-carboxamide] | 100 to 794 | 90 to 5010
